Measurements taken from PubChem BioAssay AID328 (DTP/NCI, 2004).
“And” between values parts separate entries of the source, which are not always exact repeats. Identical values can stand only once. Toxic doses and inconclusive results are not listed.

Tested on: BDF1 mice, P388 leukemia ip, median survival T/C
Assay: NCI In Vivo Anticancer Drug Screen. Data for tumor model P388 Leukemia (intraperitoneal) in B6D2F1 (BDF1) mice
Settings: endpoint: median survival time, higher = longer survival
In short: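 Transplantable tumour in mice; compound vs vehicle dosing; survival scored; ratio of treated to control reported.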

[1] = dose: 6.25 mg/kg/injection, schedule: Q01DX009 (ip), vehicle: saline
[2] = dose: 12.5 mg/kg/injection, schedule: Q01DX009 (ip), vehicle: saline
[3] = dose: 25.0 mg/kg/injection, schedule: Q01DX009 (ip), vehicle: saline
[4] = dose: 25.0 mg/kg/injection, schedule: Q04DX003 (ip), vehicle: saline
[5] = dose: 50.0 mg/kg/injection, schedule: Q04DX003 (ip), vehicle: saline
[6] = dose: 50.0 mg/kg/injection, schedule: Q01DX009 (ip), vehicle: saline
[7] = dose: 25.0 mg/kg/injection, schedule: Q01DX009 (ip), vehicle: saline with Tween-80
[8] = dose: 50.0 mg/kg/injection, schedule: Q01DX009 (ip), vehicle: saline with Tween-80
[9] = dose: 200.0 mg/kg/injection, schedule: Q01DX009 (ip), vehicle: saline with Tween-80
[10] = dose: 50.0 mg/kg/injection, schedule: Q04DX003 (ip), vehicle: saline with Tween-80
[11] = dose: 100.0 mg/kg/injection, schedule: Q01DX009 (ip), vehicle: saline with Tween-80
[12] = dose: 100.0 mg/kg/injection, schedule: Q04DX003 (ip), vehicle: saline with Tween-80
[13] = dose: 200.0 mg/kg/injection, schedule: Q04DX003 (ip), vehicle: saline with Tween-80
[14] = dose: 400.0 mg/kg/injection, schedule: Q01DX009 (ip), vehicle: saline with Tween-80
[15] = dose: 100.0 mg/kg/injection, schedule: Q04DX003 (ip), vehicle: saline
[16] = dose: 100.0 mg/kg/injection, schedule: Q01DX009 (ip), vehicle: Klucel (hydroxypropylcellulose) (HPC)
[17] = dose: 12.5 mg/kg/injection, schedule: Q01DX009 (ip), vehicle: saline with Tween-80
[18] = dose: 25.0 mg/kg/injection, schedule: Q01DX009 (ip), vehicle: Klucel (hydroxypropylcellulose) (HPC)

CN(C)CCCN1c2ccccc2Sc2ccc(F)cc21
T/C [1]: 104 % of control | T/C [2]: 109 % of control | T/C [3]: 122 % of control | T/C [4]: 104 % of control | T/C [5]: 118 % of control

CCOC(=O)C(=NN(C)C)C(=O)OCC
T/C [6]: 104 % of control | T/C (dose: 100.0 mg/kg/injection, schedule: Q01DX009 (ip), vehicle: saline): 92 % of control | T/C (dose: 200.0 mg/kg/injection, schedule: Q01DX009 (ip), vehicle: saline): 101 % of control

O=C1CC(=Nc2ccccc2)N(c2ccccc2)N1
T/C (dose: 33.75 mg/kg/injection, schedule: Q01DX009 (ip), vehicle: saline with Tween-80): 109 % of control | T/C (dose: 67.5 mg/kg/injection, schedule: Q01DX009 (ip), vehicle: saline with Tween-80): 91 % of control | T/C (dose: 135.0 mg/kg/injection, schedule: Q01DX009 (ip), vehicle: saline with Tween-80): 89 % of control

Cn1c(=O)oc2ccc(Cl)cc21
T/C [7]: 122 % of control | T/C [8]: 115 % of control | T/C [9]: 91 % of control

O=C(O)c1c[nH]n2c(=S)ncnc12
T/C [8]: 93 % of control | T/C [10]: 104 % of control | T/C [11]: 104 % of control | T/C [12]: 91 % of control | T/C [9]: 100 % of control | T/C [13]: 87 % of control | T/C [14]: 93 % of control | T/C (dose: 400.0 mg/kg/injection, schedule: Q04DX003 (ip), vehicle: saline with Tween-80): 95 % of control

[Cl][Co][Cl].[NH-]CCN1CC1
T/C [4]: 103 % of control | T/C [5]: 107 % of control | T/C [15]: 103 % of control

C[C@@H]1C[C@@]2(C)C(=CC1=O)CC[C@@H]1C2=CC[C@@]2(C)[C@H]1CC[C@]2(C)O
T/C [16]: 100 % of control and 110 % of control | T/C (dose: 100.0 mg/kg/injection, schedule: Q04DX003 (ip), vehicle: alcohol): 100 % of control | T/C (dose: 200.0 mg/kg/injection, schedule: Q01DX009 (ip), vehicle: Klucel (hydroxypropylcellulose) (HPC)): 90 % of control and 100 % of control | T/C (dose: 200.0 mg/kg/injection, schedule: Q04DX003 (ip), vehicle: alcohol): 105 % of control | T/C (dose: 400.0 mg/kg/injection, schedule: Q01DX009 (ip), vehicle: Klucel (hydroxypropylcellulose) (HPC)): 90 % of control and 113 % of control | T/C (dose: 400.0 mg/kg/injection, schedule: Q04DX003 (ip), vehicle: alcohol): 95 % of control

CC(C)(C)C([NH-])=O.CC(C)(C)C([NH-])=O.[Cl][Pt+2][Cl]
T/C (dose: 3.12 mg/kg/injection, schedule: Q01DX009 (ip), vehicle: saline): 88 % of control | T/C [1]: 92 % of control | T/C [2]: 108 % of control | T/C (dose: 12.5 mg/kg/injection, schedule: Q04DX003 (ip), vehicle: saline): 105 % of control | T/C [3]: 92 % of control | T/C [4]: 107 % of control | T/C [6]: 94 % of control | T/C [5]: 98 % of control

O=C(C(=O)c1ccc(Br)cc1)c1ccc(Br)cc1
T/C [11]: 96 % of control | T/C [9]: 98 % of control | T/C [14]: 98 % of control

O=S(=O)(CCl)OCCCl
T/C [7]: 123 % of control | T/C [8]: 107 % of control | T/C [11]: 214 % of control | T/C [9]: 177 % of control

N#Cc1nc(C#N)c(Sc2ccccc2)c(Sc2ccccc2)c1Sc1ccccc1
T/C [17]: 101 % of control and 110 % of control | T/C [7]: 100 % of control and 103 % of control | T/C [8]: 121 % of control and 122 % of control

O=[N+]([O-])c1ccc(N/N=C(\COc2ccccc2)c2ccccc2)c([N+](=O)[O-])c1
T/C (dose: 6.25 mg/kg/injection, schedule: Q01DX001 (ip), vehicle: saline with Tween-80): 95 % of control | T/C (dose: 12.5 mg/kg/injection, schedule: Q01DX001 (ip), vehicle: saline with Tween-80): 100 % of control | T/C (dose: 25.0 mg/kg/injection, schedule: Q01DX001 (ip), vehicle: saline with Tween-80): 104 % of control

NC(=O)SCC(=O)Nc1ccc2ncccc2c1
T/C (dose: 88.0 mg/kg/injection, schedule: Q01DX009 (ip), vehicle: saline): 122 % of control | T/C (dose: 100.0 mg/kg/injection, schedule: Q04DX003 (ip), vehicle: saline sonified): 104 % of control | T/C (dose: 132.0 mg/kg/injection, schedule: Q01DX009 (ip), vehicle: saline): 118 % of control | T/C (dose: 200.0 mg/kg/injection, schedule: Q04DX003 (ip), vehicle: saline sonified): 100 % of control | T/C (dose: 400.0 mg/kg/injection, schedule: Q04DX003 (ip), vehicle: saline sonified): 100 % of control

CN[C@H]1CCc2cc(OC)c(OC)c(OC)c2-c2ccc(OC)c(=O)cc21
T/C (dose: 0.63 mg/kg/injection, schedule: Q01DX010 (ip), vehicle: saline): 104 % of control | T/C (dose: 1.25 mg/kg/injection, schedule: Q01DX009 (ip), vehicle: saline): 117 % of control | T/C (dose: 1.25 mg/kg/injection, schedule: Q01DX010 (ip), vehicle: saline): 122 % of control | T/C (dose: 2.5 mg/kg/injection, schedule: Q01DX010 (ip), vehicle: saline): 122 % of control | T/C (dose: 5.0 mg/kg/injection, schedule: Q01DX010 (ip), vehicle: saline): 150 % of control | T/C (dose: 10.0 mg/kg/injection, schedule: Q01DX009 (ip), vehicle: saline): 93 % of control

O=C(O)/C=C/C(=O)Nc1ccc(Cl)c(Cl)c1
T/C [18]: 104 % of control | T/C (dose: 50.0 mg/kg/injection, schedule: Q01DX009 (ip), vehicle: Klucel (hydroxypropylcellulose) (HPC)): 111 % of control | T/C [16]: 111 % of control

NC(CSC(c1ccccc1)(c1ccccc1)c1ccc(Br)cc1)C(=O)O (stereo not given)
T/C (dose: 5.0 mg/kg/injection, schedule: Q04DX003 (ip), vehicle: Klucel (hydroxypropylcellulose) (HPC)): 118 % of control | T/C (dose: 6.25 mg/kg/injection, schedule: Q01DX009 (ip), vehicle: saline with Tween-80): 190 % of control | T/C [17]: 245 % of control | T/C [7]: 270 % of control | T/C [4]: 165 % of control | T/C (dose: 30.0 mg/kg/injection, schedule: Q04DX003 (ip), vehicle: Klucel (hydroxypropylcellulose) (HPC)): 154 % of control | T/C (dose: 45.0 mg/kg/injection, schedule: Q04DX003 (ip), vehicle: other): 166 % of control | T/C [10]: 176 % of control | T/C [5]: 204 % of control and 210 % of control | T/C (dose: 65.0 mg/kg/injection, schedule: Q04DX003 (ip), vehicle: other): 183 % of control | T/C [11]: 100 % of control | T/C (dose: 100.0 mg/kg/injection, schedule: Q04DX003 (ip), vehicle: other): 170 % of control | T/C [12]: 185 % of control | T/C [15]: 230 % of control | T/C (dose: 150.0 mg/kg/injection, schedule: Q04DX003 (ip), vehicle: other): 250 % of control | T/C [13]: 100 % of control

COc1ccc(-c2cc(=O)c3ccc4cc(OC)c(OC)cc4c3o2)cc1
T/C (dose: 1.56 mg/kg/injection, schedule: Q01DX009 (ip), vehicle: distilled water + Tween-80): 102 % of control | T/C (dose: 3.13 mg/kg/injection, schedule: Q01DX009 (ip), vehicle: distilled water + Tween-80): 86 % of control | T/C (dose: 6.25 mg/kg/injection, schedule: Q01DX009 (ip), vehicle: distilled water + Tween-80): 87 % of control | T/C (dose: 12.5 mg/kg/injection, schedule: Q01DX009 (ip), vehicle: distilled water + Tween-80): 89 % of control

CCCCNC1(C#N)CCN(Cc2ccccc2)CC1
T/C (dose: 6.0 mg/kg/injection, schedule: Q04DX003 (ip), vehicle: Klucel (hydroxypropylcellulose) (HPC)): 104 % of control | T/C (dose: 12.0 mg/kg/injection, schedule: Q04DX003 (ip), vehicle: Klucel (hydroxypropylcellulose) (HPC)): 100 % of control | T/C (dose: 12.5 mg/kg/injection, schedule: Q01DX009 (ip), vehicle: Klucel (hydroxypropylcellulose) (HPC)): 100 % of control | T/C [18]: 91 % of control | T/C (dose: 25.0 mg/kg/injection, schedule: Q04DX003 (ip), vehicle: Klucel (hydroxypropylcellulose) (HPC)): 96 % of control and 112 % of control

COc1ccc2nc(Cl)c(C)c(C)c2c1
T/C [2]: 96 % of control | T/C [3]: 88 % of control | T/C [4]: 100 % of control | T/C [6]: 93 % of control | T/C [5]: 100 % of control | T/C [15]: 109 % of control | T/C (dose: 200.0 mg/kg/injection, schedule: Q04DX003 (ip), vehicle: saline): 90 % of control | T/C (dose: 400.0 mg/kg/injection, schedule: Q01DX009 (ip), vehicle: saline): 92 % of control | T/C (dose: 400.0 mg/kg/injection, schedule: Q04DX003 (ip), vehicle: saline): 100 % of control

CC(C)CCN(CCC(C)C)CC(O)c1cc(-c2ccc(C(F)(F)F)cc2)nc(-c2ccc(C(F)(F)F)cc2)c1 (stereo not given)
T/C [8]: 113 % of control | T/C [11]: 106 % of control | T/C [9]: 113 % of control

CCN(CC)CCC1(C#N)Cc2ccccc2N(CC)c2ccccc21 (stereo not given)
T/C [11]: 107 % of control | T/C [9]: 113 % of control
